Literature values as cited in patent US20050271657A1, “Intermittent treatment regime for organ failure” (Australian Stem Cell Centre Ltd., priority 2004, published 2005).

Legend:
[1] = system: A II production from angiotensin I (A I)
[2] = renal transplant patients

In the case of CCOC(=O)[C@H](CCc1ccccc1)N[C@@H](C)C(=O)N1CCC[C@H]1C(=O)O [Enalapril, enalapril], the “blockage of A II production from angiotensin I at specific glomerular sites” value [1] is listed as “blockage” and the anemia [2] is listed as “reversible anemia”.
